Data: ChEMBL document CHEMBL5046231, “Modulation of Naturally Occurring Linear Dipeptide Chirality to Reduce the Affinity for Oligopeptide Transporter 1 and Increase Intestinal Stability for an Enhanced Colon-Targeting Effect in the Treatment of Inflammatory Bowel Disease: An Application of trans-4-l-Hydroxyprolyl-l-serine” (J Med Chem, 2022)
Calls of active or inactive are those of the source. No cut-off for these calls is given here.

Key:
[1] = Chemical stability in 0.1 M HCl at pH 1.2 assessed as half life measured up to 12 hrs by HPLC analysis; assay type: physicochemical
[2] = Chemical stability in acetate buffer at pH 4.5 assessed as half life measured up to 12 hrs by HPLC analysis; assay type: physicochemical
[3] = Chemical stability in phosphate buffer at pH 6.8 assessed as half life measured up to 12 hrs by HPLC analysis; assay type: physicochemical
[4] = Chemical stability in phosphate buffer at pH 7.2 assessed as half life measured up to 12 hrs by HPLC analysis; assay type: physicochemical
[5] = Stability in simulated gastric fluid at pH 1.2 assessed as half life measured up to 12 hrs by HPLC analysis; assay type: ADME
[6] = Stability in simulated intestinal fluid at pH 6.8 assessed as half life measured up to 12 hrs by HPLC analysis; assay type: ADME
[7] = Metabolic stability in healthy C57BL/6 mouse jejunum assessed as half life measured up to 12 hrs by HPLC analysis; assay type: ADME, tissue-based
[8] = Metabolic stability in healthy C57BL/6 mouse colon assessed as half life measured up to 12 hrs by HPLC analysis; assay type: ADME, tissue-based
[9] = Metabolic stability in healthy C57BL/6 mouse colonic flora homogenate assessed as half life measured up to 12 hrs by HPLC analysis; assay type: ADME
[10] = Metabolic stability in healthy C57BL/6 mouse liver assessed as half life measured up to 12 hrs by HPLC analysis; assay type: ADME, tissue-based
[11] = Metabolic stability in healthy C57BL/6 mouse plasma assessed as half life measured up to 12 hrs by HPLC analysis; assay type: ADME, cell-free
[12] = Metabolic stability in DSS-induced C57BL/6 mouse jejunum assessed as half life measured up to 12 hrs by HPLC analysis; assay type: ADME, tissue-based
[13] = Metabolic stability in DSS-induced C57BL/6 mouse colon assessed as half life measured up to 12 hrs by HPLC analysis; assay type: ADME, tissue-based
[14] = Metabolic stability in DSS-induced C57BL/6 inflammatory mouse model colonic flora homogenate assessed as half life measured up to 12 hrs by HPLC analysis; assay type: ADME; settings: C57BL/6, mouse
[15] = Stability in human Caco-2 cells homogenate assessed as half life measured up to 12 hrs by HPLC analysis; assay type: ADME, cell-based; settings: Caco-2 cell homogenate
[16] = target: T1, Solute carrier family 15 member 1 (Homo sapiens, UniProt P46059); test: Substrate activity at PEPT1 in human Caco-2 cells assessed as inhibition of Gly-Sar substrate uptake by UPLC-MS/MS analysis; assay type: cell-based; settings: for inhibition (INH): human, caco-2
T1 sequence (P46059 whole entry): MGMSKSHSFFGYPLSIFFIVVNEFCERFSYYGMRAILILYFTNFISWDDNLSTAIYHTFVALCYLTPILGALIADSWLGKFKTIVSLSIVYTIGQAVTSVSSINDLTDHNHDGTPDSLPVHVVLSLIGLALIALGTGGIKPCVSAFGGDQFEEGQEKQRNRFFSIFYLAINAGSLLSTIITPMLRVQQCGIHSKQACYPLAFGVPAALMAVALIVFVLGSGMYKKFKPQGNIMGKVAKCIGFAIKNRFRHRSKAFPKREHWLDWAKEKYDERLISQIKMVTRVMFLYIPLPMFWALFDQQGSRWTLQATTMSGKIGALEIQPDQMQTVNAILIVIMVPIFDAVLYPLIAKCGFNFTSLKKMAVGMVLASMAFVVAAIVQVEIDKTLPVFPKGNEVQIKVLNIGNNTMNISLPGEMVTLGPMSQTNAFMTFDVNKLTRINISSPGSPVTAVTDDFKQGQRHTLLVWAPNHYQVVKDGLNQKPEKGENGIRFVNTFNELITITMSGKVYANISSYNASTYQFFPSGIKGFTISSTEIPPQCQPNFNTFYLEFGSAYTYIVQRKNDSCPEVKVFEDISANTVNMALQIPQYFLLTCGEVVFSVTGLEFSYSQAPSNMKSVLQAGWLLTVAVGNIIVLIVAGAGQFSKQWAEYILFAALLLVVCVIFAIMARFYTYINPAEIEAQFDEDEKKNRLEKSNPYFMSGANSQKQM

[17] = AUC (0 to 6 hrs) in DSS-induced colitis C57BL/6 mouse model at 25 mg/kg, po measured up to 6 hrs by UPLC-MS/MS analysis; assay type: ADME, organism-based; design: route oral, dose 25 mg/kg, time <=6; settings: in vivo
[18] = Cmax in DSS-induced colitis C57BL/6 mouse model at 25 mg/kg, po measured up to 6 hrs by UPLC-MS/MS analysis; assay type: ADME, organism-based; design: route oral, dose 25 mg/kg, time <=6; settings: in vivo
[19] = Tmax in DSS-induced colitis C57BL/6 mouse model at 25 mg/kg, po measured up to 6 hrs by UPLC-MS/MS analysis; assay type: ADME, organism-based; settings: in vivo
Mus musculus [20] = test: Anti-colitis activity against DSS-induced colitis in C57BL/6 mouse model assessed as assessed as recovery of body weight at 25 mg/kg, po administered via gavage twice daily for 10 days; assay type: functional, organism-based; settings: time 10.0 day
Mus musculus [21] = test: Anti-colitis activity against DSS-induced colitis in C57BL/6 mouse model assessed as increase in colon length at 25 mg/kg, po administered via gavage twice daily for 10 days; assay type: functional, organism-based; settings: time 10.0 day
[22] = target: T1, Solute carrier family 15 member 1; test: Substrate activity at PEPT1 in human Caco-2 cells assessed as fold increase in drug uptake by UPLC-MS/MS analysis relative to its enantiomers; assay type: ADME, cell-based
Mus musculus [23] = test: Anti-colitis activity against DSS-induced colitis in C57BL/6 mouse model assessed as fold decrease in disease activity index at 25 mg/kg, po administered via gavage twice daily for 10 days relative to control; assay type: functional; settings: time 10 day
[24] = target: T2, Solute carrier family 15 member 1 (Rattus norvegicus, UniProt P51574); test: Substrate activity in PEPT1 in Sprague-Dawley rat jejunum assessed as fold increase in effective permeability at 5 mM measured up to 60 mins in presence of Gly-Sar by HPLC analysis relative to its enantiomers; assay type: ADME, tissue-based; settings: 1 h, 5000 µM
T2 sequence (P51574 whole entry): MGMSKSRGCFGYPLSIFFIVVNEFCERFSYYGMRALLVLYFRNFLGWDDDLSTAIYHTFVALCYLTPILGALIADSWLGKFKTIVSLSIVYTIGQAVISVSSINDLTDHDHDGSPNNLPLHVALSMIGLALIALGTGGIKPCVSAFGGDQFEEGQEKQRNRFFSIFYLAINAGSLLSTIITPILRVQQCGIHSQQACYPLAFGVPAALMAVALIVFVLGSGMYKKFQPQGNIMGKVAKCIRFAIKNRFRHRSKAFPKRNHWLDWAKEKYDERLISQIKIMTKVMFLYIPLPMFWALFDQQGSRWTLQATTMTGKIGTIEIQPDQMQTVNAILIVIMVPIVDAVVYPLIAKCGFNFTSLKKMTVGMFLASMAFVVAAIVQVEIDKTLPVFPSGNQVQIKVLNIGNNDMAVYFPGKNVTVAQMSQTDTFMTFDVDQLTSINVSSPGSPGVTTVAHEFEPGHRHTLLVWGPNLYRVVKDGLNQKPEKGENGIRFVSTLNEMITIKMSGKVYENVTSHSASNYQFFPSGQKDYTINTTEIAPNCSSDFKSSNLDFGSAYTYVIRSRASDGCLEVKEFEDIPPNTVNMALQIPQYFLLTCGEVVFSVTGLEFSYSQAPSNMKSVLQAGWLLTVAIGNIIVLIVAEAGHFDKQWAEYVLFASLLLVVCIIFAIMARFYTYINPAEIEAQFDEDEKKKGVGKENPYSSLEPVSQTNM

[25] = target: T1, Solute carrier family 15 member 1; test: Substrate activity at PEPT1 in human Caco-2 cells assessed as fold reduction in drug uptake in presence of Gly-Sar by UPLC-MS/MS analysis relative to its enantiomers; assay type: ADME, cell-based
[26] = Apparent permeability across apical to basolateral side in human Caco-2 cells assessed as fold increase in permeability at 0.5 mM measured up to 60 mins by UPLC-MS/MS analysis relative to its enantiomers; assay type: ADME, cell-based; settings: caco-2, 1 h, 500 µM
Jejunum = test: Effective permeability in Sprague-Dawley rat jejunum assessed as fold increase in permeability at 5 mM measured up to 60 mins by HPLC analysis relative to its enantiomers; assay type: ADME, tissue-based; settings: 1 h, 5000 µM

Compound | half-life [1] [h] | half-life [2] [h] | half-life [3] [h] | half-life [4] [h] | half-life [5] [h] | half-life [6] [h] | half-life [7] [h] | half-life [8] [h] | half-life [9] [h] | half-life [10] [h] | half-life [11] [h] | half-life [12] [h] | half-life [13] [h] | half-life [14] [h] | half-life [15] [h] | AUC [17] [microM/L.hr] | Cmax [18] [µM] | Tmax [19] [h] | Activity (Mus musculus [20]) | Activity (Mus musculus [21]) | also measured
O=C(O)[C@H](CO)NC(=O)[C@H]1C[C@@H](O)CN1 | > 12 | > 12 | > 12 | > 12 | > 12 | > 12 | > 12 | > 12 | > 12 | > 12 | > 12 | > 12 | > 12 | > 12 | > 12 | 44.55 | 22.7 | 4 | inactive | inactive | inhibition (INH) [16]: Not Active
O=C(O)[C@@H](CO)NC(=O)[C@H]1C[C@H](O)CN1 | > 12 | > 12 | > 12 | > 12 | > 12 | > 12 | > 12 | > 12 | > 12 | > 12 | > 12 | > 12 | > 12 | > 12 | > 12 | 50.73 | 22.9 | 4 | Active | Active | inhibition (INH) [16]: Not Active; fold change (FC) [22]: 3.3; fold change (FC) (Mus musculus [23]): 1.5
O=C(O)[C@H](CO)NC(=O)[C@H]1C[C@H](O)CN1 | > 12 | > 12 | > 12 | > 12 | > 12 | > 12 | > 12 | > 12 | > 12 | > 12 | > 12 | > 12 | > 12 | > 12 | > 12 | 8.55 | 4.01 | 2 | inactive | inactive | fold change (FC) [24]: 6.2; IC50 [16]: 9.6 mM; fold change (FC) [22]: 3.3; fold change (FC) [25]: 3.4; fold change (FC) [26]: 6.3; fold change (FC) (Jejunum): 7.3
O=C(N[C@H](CO)C(=O)O)[C@@H]1C[C@H](O)CN1 | > 12 | > 12 | > 12 | > 12 | > 12 | > 12 | > 12 | > 12 | > 12 | > 12 | > 12 | > 12 | > 12 | > 12 | > 12 | 49.92 | 22.1 | 4 | inactive | inactive | inhibition (INH) [16]: Not Active
O=C(O)[C@H](CO)NC(=O)[C@@H]1C[C@H](O)CN1 | > 12 | > 12 | > 12 | > 12 | > 12 | > 12 | 0.39 | > 12 | 1.22 | 0.51 | > 12 | 0.35 | > 12 | 1.15 | > 12 | 1.62 | 1.05 | 2 | inactive | inactive | fold change (FC) [24]: 4; IC50 [16]: 9.8 mM; fold change (FC) [22]: 3.3; fold change (FC) [25]: 3.4; fold change (FC) [26]: 6.3; fold change (FC) (Jejunum): 7.3
